Data from US20090170926A1, “Antiviral agents” (Monash Univeristy, priority 2004, published 2009).
Where two headings read alike, the source gives them in different places.

What was measured:
[1] = tested on: hepatitis B in 2.2.15 human hepatoma cells; assay: Antiviral activity in 2.2.15 human hepatoma cells infected with hepatitis B (viral DNA in supernatant); type: cell-based; conditions: Hepatitis B virus; for EC50: read-out: EC50 (effective concentration for 50% inhibition of the replication of the virus); for EC90: read-out: EC90 (effective concentration for 90% inhibition of the replication of the virus)
Method: Tests of antiviral activity were performed in 2.2.15 human hepatoma cells infected with hepatitis B according to the method of Korba and Gerin, Antiviral Research, 19, 55-70 (1992). Briefly, cells were seeded into 96 well plates and cell media containing various concentrations of the compounds was added. Media was changed daily for 9 days and fresh media containing compound was added each day. On the 10th day, viral DNA in the supernatant was measured and the reduction in the amount of virus in the supernatant was calculated compared to cells incubated without drug. Six separate replicates were performed for each drug concentration. The effective concentration for 50% and 90% inhibition of the replication of the virus was determined from dose response curves.

[2] = tested on: HBV containing mutations associated with resistance to lamivudine (L180M and L180M/M204V in the HBV DNA polymerase) in HepG2 hepatoma cells; assay: HBV core protein level in HepG2 hepatoma cells infected with lamivudine-resistant HBV (non-denaturing Western blot); type: cell-based, hepatitis B virus; conditions: day 5, HBV core protein vs controls
Method: Antiviral activity was also examined in HepG2 hepatoma cells infected with HBV containing mutations associated with resistance to lamivudine (3TC). Two cell lines containing an L180M mutation in the HBV DNA polymerase, and a double L180M/M204V mutation were used. Cells were plated out in six well plates and allowed to attach overnight. Next day, the culture medium was replaced with either medium alone or medium containing the desired concentration of antiviral compound. Media was changed for fresh medium with or without antiviral compound on day 3. On day 5, supernatant and cell lysatcs were analysed for levels of HBV core protein by non-denaturing Western blot using an anti-HBV core antibody.
Results for some of the compounds are shown in Table 2 where a 50% reduction or more in measured level of the viral core protein compared to controls at a compound concentration of greater than 50 μmolar is designated +50% core reduction at less than 50 μmolar is designated ++ and 50% core reduction at less than 10 μmolar compound concentration is designated +++.

[3] = Solubility in water; type: physicochemical; conditions: read-out: solubility in water (fully soluble)
Method: The ^1H NMR can also be run in D2O, compound 13 is fully soluble in water at 10 mg/mL

[4] = 2.2.15 cells, 9 days treatment, viral DNA in supernatant on day 10

Structure (SMILES)	melting point [°C]	≧50% core reduction [2]	further results
Cc1ccc(S(=O)(=O)OC2=C(Br)C(=O)c3ccc4c(c3C2=O)C=CC(C)(C)O4)cc1	181.5 to 184	–	–
CC1(C)CCc2c(ccc3c2C(=O)C=C(O)C3=O)O1 [Compound 2, 8-Hydroxy-3,3-dimethyl-1,2-dihydro-3H-naphtho[2,1-b]pyran-7,10-dione]	183.5 to 187	–	EC50 [1, 4]: 1.1 µM; EC90 [1, 4]: 1.3 µM
CC1(C)CCc2c(ccc3c2C(=O)C(Br)=C(O)C3=O)O1 [Compound 5, 9-bromo-8-hydroxy-3,3-dimethyl-1,2-dihydro-3H-naphtho[2,1-b]pyran-7,10-dione]	213 to 216	++ (50% core reduction at less than 50 μmolar is designated ++)	–
CC1(C)CCc2c(ccc3c2C(=O)C(Cl)=C(Cl)C3=O)O1	158 to 160	–	–
CC1(C)C=Cc2c(ccc3c2C(=O)C=C(O)C3=O)O1 [Compound 13, Sodium 3,3-dimethyl-7,10-dioxo-7,10-dihydro-3H-benzo[f]chromen-8-olate]	–	+ (a 50% reduction or more in measured level of the viral core protein compared to controls at a compound concentration of greater than 50 μmolar is designated +)	solubility [3]: ≥ 10000 µg/mL
CC1(C)C=Cc2c(ccc3c2C(=O)C(Br)=C(O)C3=O)O1 [Compound 6, 9-Bromo-8-hydroxy-3,3-dimethyl-3H-naphtho[2,1-b]pyran-7,10-dione]	–	+ (a 50% reduction or more in measured level of the viral core protein compared to controls at a compound concentration of greater than 50 μmolar is designated +)	–
Cc1ccc(S(=O)(=O)OC2=C(Br)C(=O)c3c(ccc4c3C=CC(C)(C)O4)C2=O)cc1	167 to 168	–	–
Cc1ccc(S(=O)(=O)OC2=C(Br)C(=O)c3ccc4c(c3C2=O)CCC(C)(C)O4)cc1	168 to 169.5	–	–
CC1(C)C=Cc2c(ccc3c2C(=O)C=C(O)C3=O)O1 [Compound 1, 8-hydroxy-3,3-dimethyl-3H-naphtho[2,1-b]pyran-7,10-dione]	208	+++ (50% core reduction at less than 10 μmolar compound concentration is designated +++)	EC50 [1]: 0.6 µM; EC90 [1]: 3.4 µM
Cc1ccc(S(=O)(=O)OC2=C(Br)C(=O)c3c(ccc4c3CCC(C)(C)O4)C2=O)cc1	109 to 115	–	–
